Assay results taken from publication PMC9504208, “Comprehensive Study of Antiretroviral Drug Permeability at the Cervicovaginal Mucosa via an In Vitro Model” (Pharmaceutics, 2022).
Where two headings read alike, the source gives them in different places.

How the values were obtained:
HEC-1A cells [1] = assay: Cytokine production of HEC-1A cells stimulated with PAMPs (Luminex); type: cell-based, human; details: 24 h stimulation
Description: HEC-1A cells were stimulated with different PAMPs (pam 3CSK4, lipoteichoic acid, poly(I:C), Escherichia coli lipopolysaccharide, FSL-1, flagellin, imiquimod, zymosan) (InvivoGen, San Diego, CA, USA) diluted in cell culture media with incubation at 37 °C in 5% CO2 for 24 h. PAMPs were titrated to determine the optimal concentration for cytokine stimulation. Blank samples contained media only. After 24 h, the supernatant was collected for cytokine detection. Cytokine levels were determined using a Magnetic Luminex® Performance Assay kit (R&D Systems, Minneapolis, MN, USA) following the manufacturer’s instructions. Analyte-specific antibodies were pre-coated onto colour-coded microparticles and detection was carried out with a biotinylated antibody cocktail specific to the target cytokines and a streptavidin-phycoerythrin conjugate. Samples were resuspended in 100 µL of Washing Buffer and measured for a phycoerythrin-derived signal using a Luminex® 100 instrument.

VK2/E6E7 cells = assay: Intracellular accumulation of digoxin in cytokine-stimulated VK2/E6E7 cells; type: cell-based, human; details: 5 µM digoxin, 1 h; after cytokine stimulation
Description: A 500 μL sample from each well was stored and the remainder of the buffer was aspirated from the plates. The wells were then washed twice with ice-cold PBS to stop any further uptake of the drug. To each well, 500 μL of ddH2O was added and cells were removed using a cell scraper. The cell suspension was then transferred to individual tubes for mechanical cell lysis using a 21-gauge needle followed by a freeze-thaw cycle at -80 °C. Protein content for normalisation calculations was measured via a bicinchoninic acid assay. The solution was then centrifuged at 14,000× g for 15 min and the supernatants were stored at -80 °C until analysis by LC-MS/MS. Samples were centrifuged at 14,800 rpm for 5 min to remove cell debris. […] Analysis was performed on a Thermo Surveyor TSQ Quantum system using electrospray ionisation in positive ion mode. Samples (5 μL) were applied to a C18 column (Gemini 3μ, 150 × 3.0 mm, Phenomenex, Macclesfield, UK) maintained at 40 °C. […] The flow rate for both methods was 350 μL/min. […] Cytokines were reconstituted in sterile and distilled water and added individually to cell cultures at the following concentrations: TNF-α (200 pg/mL), IL-1β (8 ng/mL), IL-6 (5 ng/mL) and IL-8 (100 ng/mL) were. […] Cells were stimulated for either drugs, cytokines or hormones for 72 h, before harvesting by centrifugation at 300× g for 10 min at 4 °C. […] All cell line stimulation experiments were conducted as a minimum of three biological repeats.

[2] = test system: drug transporter mRNA expression in VK2/E6E7 cells; assay: Drug transporter mRNA expression (RT-qPCR) in stimulated VK2/E6E7 cells; type: cell-based, human; details: 72 h cytokine stimulation
Description: (§1) Control was 0.1% DMSO with no drug. Cytokines were reconstituted in sterile and distilled water and added individually to cell cultures at the following concentrations: TNF-α (200 pg/mL), IL-1β (8 ng/mL), IL-6 (5 ng/mL) and IL-8 (100 ng/mL) were. […] Cells were stimulated for either drugs, cytokines or hormones for 72 h, before harvesting by centrifugation at 300× g for 10 min at 4 °C. For Lactobacillus crispatus a final MoI of 10 was used (10:1, bacterial cells:mammalian cell ratio) for co-culture in both HEC-1A and VK2/E6E7 cell lines. For Candida albicans, a final MoI of 1 for HEC-1A cells and 0.25 for VK2/E6E7 cells was used. Cells were incubated with fungal cells at 37 °C/5% CO2 for 24 h. All cell line stimulation experiments were conducted as a minimum of three biological repeats.
(§2) RNA extraction was performed using the RNeasy® Mini Kit (Qiagen, Manchester, UK). Cells were lysed by suspension in 600 μL of RLT Buffer with 1% β-mercaptoethanol (Sigma-Aldrich) and mechanical lysis into a QIAshredder (Qiagen). After the addition of 70% ethanol, the solution was loaded onto RNeasy columns for RNA purification as per the manufacturer’s instructions. DNase treatment was 15 min at room temperature. RNA was eluted from the columns with 30 μL of RNase-free ddH2O. Tapestation analysis was performed using an Agilent 2200 Tapestation system to determine the integrity of the RNA.
(§3) Synthesis of cDNA was performed using a Superscript® VILO™ kit (Life Technologies, Paisley, UK). Reverse transcription was performed at 25 °C for 10 min, 42 °C for 60 min and 85 °C for 5 min. The cDNA was then stored at −20 °C until RT-PCR assays.
(§4) SYBRgreen® PrecisionTM 2× qPCR Mastermix with ROX quencher (Primer Design, Southampton, UK) was used for all RT-qPCR assays. Individual primers were designed to target the HPRT1 and RPLP0 housekeeper genes (selected from an initial panel based on SD scores as a measure of the consistency of expression amongst all samples) in addition to seventeen ARV-associated drug transporters (9 ABC transporters and 8 SLC transporters) replicating the system contained in the TaqMan® 96-well Drug Transporter Array system (Life Technologies, Paisley, UK). Real-time quantitative PCR was performed using the 7900HT Fast Real-Time PCR system and data was analysed using the SDS 2.4 software (Applied Biosystems, Waltham, MA, USA). Cycling conditions were: 95 °C for 5 min, followed by 40 cycles of denaturation at 95 °C for 10 s, annealing at 60 °C for 10 s and extension at 72 °C for 10 s. Relative transcript levels in drug-stimulated cells were determined using the comparative Ct method (ΔΔCt method). Fold-change values of ±2–3 were considered minor, ±3–5 as moderate and >±5 as high.

[3] = test system: drug transporter mRNA expression in HEC-1A cells; assay: Drug transporter mRNA expression (RT-qPCR) in stimulated HEC-1A cells; type: cell-based, human; details: 72 h stimulation
Description: as §1, §2, §3, §4

[4] = Bi-directional permeability (Papp) across HEC-1A dual chamber (Transwell) barrier model; type: in vitro ADME; details: human; for Papp A→B at 2 h: read-out: Absorptive permeability Papp; for Papp B→A at 2 h: read-out: Secretory permeability Papp
Description: The apical chambers of 12-well polycarbonate and polyester systems (Corning Costar Corp, Cambridge, UK) were seeded with different densities of HEC-1A cells in 500 µL of the medium while 1500 µL culture medium was added to the basolateral chamber. -Medium in both chambers was changed every 48–72 h.

in vitro = details: human, pH 7.4
HEC-1A cells [5] = assay: Cell-associated drug and distribution between apical and basolateral compartments after absorptive permeability assay; type: in vitro ADME, human; details: for Cell-associated drug (HEC-1A cells): after absorptive permeability assays;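 as to all read-outs here: transwell transport run over 2 h at 37 °C, radiolabelled drug quantified by liquid scintillation counting, with insert membranes also counted for mass balance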
HEC-1A barrier model = assay: Permeability of labelled drug across HEC-1A model on coadministration with a second ARV; type: in vitro ADME, human; details: labelled drug 10 µM; for Absorptive permeability on coadministration with dapivirine: dapivirine 0–10 µM
HEC-1A cell layers [6] = assay: Permeability across HEC-1A cell layers stimulated with poly(I:C); details: p > 0.05, ANOVA
HEC-1A cell layers [7] = test system: HEC-1A cell layers
HEC-1A monolayer = assay: Darunavir transfer across low-pH-adapted HEC-1A monolayers at apical pH 7.5 or 5.5 (LC-MS/MS); type: in vitro ADME, human; details: for % of darunavir transferred to the receiver compartment, absorptive direction: 2 h, n = 10
[8] = ref DrugBank; cited from earlier work

Molecule	Effect on intracellular uptake of digoxin (VK2/E6E7 cells)	Expression of uptake transporters OATP8 and CNT3 [2]	P-gp mRNA level [2]	Change in expression of drug transporters (panel of 17) [3]	Papp at 2 h, 10 µM (in vitro) [×10⁻⁶ cm/s]	% Drug Distribution Apical (HEC-1A cells [5]; 1 μM) [%]	% Drug Distribution Basolateral (HEC-1A cells [5]; 1 μM) [%]	% Drug Distribution Apical (HEC-1A cells [5]; 10 μM) [%]	% Drug Distribution Basolateral (HEC-1A cells [5]; 10 μM) [%]	% Drug Distribution Cell-Associated (HEC-1A cells [5]; 10 μM) [%]	Cell-associated drug (HEC-1A cells) (HEC-1A cells [5]) [%]	Absorptive permeability on coadministration with dapivirine (HEC-1A barrier model)	Difference in Papp (A-B or B-A), poly(I:C)-stimulated vs unstimulated cell layers (HEC-1A cell layers [6])	Papp (HEC-1A cell layers [7]) [×10⁻⁶ cm/s]	other results
flagellin	–	–	–	–	–	–	–	–	–	–	–	–	–	–	Pro-inflammatory cytokine production (HEC-1A cells [1]): stimulated production of IL-8, GM-CSF and TNF-α
IL-6: pro-inflammatory cytokine	not	induce the expression	increased	No changes	–	–	–	–	–	–	–	–	–	–	–
TNF-α	significantly reduced	induce the expression	increased	No changes	–	–	–	–	–	–	–	–	–	–	–
C[C@H](Cn1cnc2c(N)ncnc21)OCP(=O)(O)O [tenofovir, Tenofovir]	–	–	–	–	1.06 ± 0.05	96.85 ± 0.29	2.73 ± 0.24	96.91 ± 0.27	2.79 ± 0.25	0.3 ± 0.06	≤ 0.5	not altered	no significant differences	1.45 ± 0.21	Papp A→B at 2 h ([4]; pH 7.4, apical to basolateral, over concentration range (tenofovir 0.1–100 µM; darunavir 0.1–20 µM, 0.01% DMSO)): 1.76 to 2.06 ×10⁻⁶ cm/s; Papp B→A at 2 h ([4]; pH 7.4, basolateral to apical, over concentration range (tenofovir 0.1–100 µM; darunavir 0.1–20 µM, 0.01% DMSO)): 1.46 to 1.64 ×10⁻⁶ cm/s; efflux ratio at 2 h ([4]; pH 7.4, over concentration range tested, read-out: Efflux ratio (secretory/absorptive)): 0.77 to 0.83; % Drug Distribution Apical (HEC-1A cells [5]; 0.1 μM): 97.03 ± 0.28%; % Drug Distribution Basolateral (HEC-1A cells [5]; 0.1 μM): 2.63 ± 0.25%; % Drug Distribution Cell-Associated (HEC-1A cells [5]; 0.1 μM): 0.34 ± 0.06%; % Drug Distribution Cell-Associated (HEC-1A cells [5]; 1 μM): 0.42 ± 0.08%; % Drug Distribution Apical (HEC-1A cells [5]; 100 μM): 96.59 ± 0.41%; % Drug Distribution Basolateral (HEC-1A cells [5]; 100 μM): 2.99 ± 0.36%; % Drug Distribution Cell-Associated (HEC-1A cells [5]; 100 μM): 0.42 ± 0.17%; Recovery from the apical compartment after absorptive permeability assays (HEC-1A cells [5]; % of initial concentration, no Poloxamer): 96–97%; Absorptive or secretory permeability on coadministration with darunavir (HEC-1A barrier model; darunavir 0–10 µM): did not significantly alter
CN(C)C(=O)CCSC(SCCC(=O)O)c1cccc(/C=C/c2ccc3ccc(Cl)cc3n2)c1 (stereo not drawn) [MK571]	–	–	–	–	–	–	–	–	–	–	–	–	–	–	Effect on absorptive transfer of darunavir (HEC-1A monolayer; MK571 (50 µM) in donor compartment, apical pH 5.5): reduced the absorptive transfer of darunavir to the level observed at pH 7.5
CC(C)CN(C[C@@H](O)[C@H](Cc1ccccc1)NC(=O)O[C@H]1CO[C@H]2OCC[C@H]21)S(=O)(=O)c1ccc(N)cc1 [darunavir, Darunavir]	–	–	–	–	8.24 ± 0.6	82.90 ± 1.76	15.13 ± 1.44	83.36 ± 2.12	13.95 ± 1.75	2.70 ± 1.31	≤ 3	not altered	no significant differences	8.45 ± 0.68	Papp A→B at 2 h ([4]; pH 7.4): 9.66 to 11.2 ×10⁻⁶ cm/s; Papp B→A at 2 h ([4]; pH 7.4): 8.59 to 9.42 ×10⁻⁶ cm/s; % Drug Distribution Apical (HEC-1A cells [5]; 5 μM): 83.15 ± 2.61%; % Drug Distribution Basolateral (HEC-1A cells [5]; 5 μM): 14.55 ± 1.88%; % Drug Distribution Cell-Associated (HEC-1A cells [5]; 5 μM): 2.55 ± 1.22%; % Drug Distribution Apical (HEC-1A cells [5]; 20 μM): 81.72 ± 1.61%; % Drug Distribution Basolateral (HEC-1A cells [5]; 20 μM): 15.31 ± 1.22%; % Drug Distribution Cell-Associated (HEC-1A cells [5]; 20 μM): 2.97 ± 1.27%; Permeabilities on coadministration with tenofovir (HEC-1A barrier model; tenofovir 0–100 µM): no effect; % of darunavir transferred to the receiver compartment, absorptive direction (HEC-1A monolayer; apical pH 5.5, basal pH 7.5, p < 0.001): 30.1 ± 6.0%; % of darunavir transferred to the receiver compartment, absorptive direction (HEC-1A monolayer; apical pH 7.5): 20 ±2.8%; logP [8]: 2.82
